For one compound, solubility results are on record in patent publication US11155571B2, “Salt of pyranose-substituted heterocyclic compound, preparation method therefor and use thereof” (Yabao Pharmaceutical Group Co., Ltd., priority 2018, dated 2021).

This series can be described thus: Solubility in water. The class given is physicochemical.

Each structure is given as a SMILES string.

As usually defined, the solubility is how much of the substance goes into solution per volume. Higher therefore signals much dissolved substance. As to `Cc1cccc2c1c(Cc1ccc(OCCCN3CCCC4(CCN(C(=O)CNC(=O)NCC(C)C)CC4)C3)cc1)cn2C1O[C@H](CO)[C@@H](O)[C@H](O)[C@H]1O` (stereo partly shown) [compound represented by formula (II)], the solubility was less than 2300 µg/mL.
